Laboratory results reported in US10023593B2, “ALK kinase inhibitor, and preparation method and uses thereof” (BEIJING PEARL BIOTECHNOLOGY LIMITED LIABILITY COMPANY, priority 2014, dated 2018).

How the values were obtained:
Karpas-299 cell line = assay: CellTiter-Glo cell proliferation inhibition on Karpas-299 cell line; type: cell-based; conditions: Homo sapiens, 96 h, Karpas-299 cells, 5000 cells/well, 4 days drug treatment
Procedure: 4. Cell Proliferation Inhibitory Activities of the Compounds of the Present Invention on Karpas-299 Cell Line
? experimental method ? CellTiter-Glo® Luminescent Cell Viability Assay kit from Promega company was used to detect cell proliferation inhibitory activities of the compounds on Karpas-299 cell line.
? instrument ? Envision 2104 plate reader from PerKinElmer company; Vi-Cell XR cell counter from Beckman Counter company; MCO-18AIC CO2 incubator from SANYO company.
? experiment material ? CellTiter-Glo® Luminescent Cell Viability Assay Kit (Promega company, catalog No. G7573); Karpas-299 cell line (DSMZ, catalog No. ACC31); RPMI-1640 medium (HyClone company, catalog No. SH30809.01B); fetal bovine serum (FBS) (Gibco company, catalog No. 10099-141); PBS (HyClone company, catalog No. SH30256.01B); 96 wells cell culture plate (Corning company, catalog No. 3610); DMSO (AMRESCO company, catalog No. 0231); 96 wells plates (for diluting compounds) (CITOTEST company, catalog No. Ref36020096D);
? experimental condition ? Karpas-299 cells in exponential growth phase were collected and viable cells were counted by Vi-Cell XR cell counter. Cell suspension was adjusted to 62500 cells/ml with culture medium (RPMI-1640+10% FBS). 80 μl cell suspension was added into each well of 96 wells cell culture plate so that so that the final cell number of Karpas-299 cells was 5000 cells/well. The cells were cultivated in an incubator with an atmosphere of 37° C., 5% CO2 and 95% humidity for 2 hours and then each well was added with 20 μl compounds in RPMI-1640 medium solution (the final concentration of DMSO was 0.5%). 4 days after drug treatment, each well was added with 50 μl CellTiter-Glo solution which was previously thawed and equilibrated to room temperature, and mixed for 2 minutes with microplate shaker. After placing at room temperature for 10 minutes, luminescence reading value was measured with PerkinElmer Envision 2104 plate reader and the data was analyzed.
? tested samples ? Compounds of the examples.
Luminescence value of DMSO solvent control (Vvehicle control, which is the mean luminescence value from DMSO solvent control group)
Tested luminescence value (Vsample, which is the luminescence value from given concentration of compounds group) Inhibition rate (%)=(1−Vsample/Vvehicle control)×100
? data processing ? IC50 of compounds was calculated by using XLfit program in Excel.

L1196M mutant ALK kinase = target: T1, L1196M mutant ALK kinase (Homo sapiens, UniProt Q9UM73, L1196M); assay: HTRF KinEASE-TK assay, inhibitory activity on L1196M mutant ALK kinase; type: biochemical; conditions: L1196M mutant ALK 1 ng/μl, substrate 1 μM, ATP 5 μM, 30° C. 35 minutes, read-out: Inhibition on ALK kinases (L1196M mutant), IC50
T1 construct: purchased Sino-US Crown Bioscience, Inc. batch number ALKm_20110923
Outline: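 HTRF TK assay: mutant kinase 1 ng/μl, substrate 1 μM, ATP 5 μM, 5 mM MgCl2, 1 mM DTT, 1% DMSO, 35 min at 30 °C. 665/615 ratio read; inhibition normalised to no-compound and 10.4 μM LDK-378 controls; IC50 from curve fit.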

T1 sequence (Q9UM73 19-1620 L1196M): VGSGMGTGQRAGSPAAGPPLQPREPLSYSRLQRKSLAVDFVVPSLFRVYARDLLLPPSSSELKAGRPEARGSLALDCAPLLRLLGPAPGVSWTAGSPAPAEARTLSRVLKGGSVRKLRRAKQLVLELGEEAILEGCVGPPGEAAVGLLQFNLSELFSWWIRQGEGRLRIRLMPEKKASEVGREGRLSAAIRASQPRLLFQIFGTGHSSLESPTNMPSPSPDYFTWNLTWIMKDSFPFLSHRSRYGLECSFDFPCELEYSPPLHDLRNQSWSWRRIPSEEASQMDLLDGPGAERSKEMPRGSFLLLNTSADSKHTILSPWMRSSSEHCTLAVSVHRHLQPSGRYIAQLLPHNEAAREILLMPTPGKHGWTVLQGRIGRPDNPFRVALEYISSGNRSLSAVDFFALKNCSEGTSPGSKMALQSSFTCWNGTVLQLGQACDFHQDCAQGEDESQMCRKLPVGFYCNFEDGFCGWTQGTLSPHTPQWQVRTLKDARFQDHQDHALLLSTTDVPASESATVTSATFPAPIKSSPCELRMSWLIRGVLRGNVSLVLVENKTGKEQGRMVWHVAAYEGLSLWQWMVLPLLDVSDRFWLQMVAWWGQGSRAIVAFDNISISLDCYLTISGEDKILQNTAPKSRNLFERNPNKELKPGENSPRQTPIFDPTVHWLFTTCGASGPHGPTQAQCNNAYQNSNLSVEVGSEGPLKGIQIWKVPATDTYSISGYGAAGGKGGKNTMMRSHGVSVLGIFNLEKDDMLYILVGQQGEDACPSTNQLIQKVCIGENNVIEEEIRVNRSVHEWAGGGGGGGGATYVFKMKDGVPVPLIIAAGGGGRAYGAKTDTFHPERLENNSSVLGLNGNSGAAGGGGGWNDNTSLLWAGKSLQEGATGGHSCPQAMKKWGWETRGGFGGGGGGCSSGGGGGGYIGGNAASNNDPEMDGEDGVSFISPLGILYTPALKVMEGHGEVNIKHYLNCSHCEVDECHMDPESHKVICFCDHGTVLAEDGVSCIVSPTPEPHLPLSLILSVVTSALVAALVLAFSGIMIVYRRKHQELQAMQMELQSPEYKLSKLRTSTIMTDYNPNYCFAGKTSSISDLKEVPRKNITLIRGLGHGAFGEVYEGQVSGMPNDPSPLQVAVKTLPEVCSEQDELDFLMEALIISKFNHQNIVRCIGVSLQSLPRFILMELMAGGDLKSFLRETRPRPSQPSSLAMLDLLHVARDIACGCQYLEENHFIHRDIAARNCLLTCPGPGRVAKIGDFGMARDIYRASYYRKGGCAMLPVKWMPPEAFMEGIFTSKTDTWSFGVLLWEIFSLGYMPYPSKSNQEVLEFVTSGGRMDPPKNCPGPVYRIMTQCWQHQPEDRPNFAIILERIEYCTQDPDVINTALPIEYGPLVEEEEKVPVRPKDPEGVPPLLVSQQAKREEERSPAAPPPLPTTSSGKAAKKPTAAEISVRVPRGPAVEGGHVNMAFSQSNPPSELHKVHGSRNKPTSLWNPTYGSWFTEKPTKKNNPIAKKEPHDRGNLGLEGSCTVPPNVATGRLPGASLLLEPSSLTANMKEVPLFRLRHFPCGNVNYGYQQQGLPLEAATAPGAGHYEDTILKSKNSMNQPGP

Row | IC50 (Karpas-299 cell line) [nM] | IC50 (L1196M mutant ALK kinase) [nM] | Compound
1 | 19 | 15 | Cc1cc(Nc2ncc(Cl)c(Nc3cn(C)nc3S(=O)(=O)CC(C)C)n2)c(OC2CC2)cc1C1CCNCC1 [Final product 28]
2 | 35 | 7 | CC(C)S(=O)(=O)c1nn(C)cc1Nc1nc(Nc2cc(C#N)c(C3CCNCC3)cc2OC2CC2)ncc1Cl [Final product 29]
3 | 25 | 18 | CC(C)S(=O)(=O)c1nn(C)cc1Nc1nc(Nc2ccc(C3CCN(C)CC3)cc2OC(F)(F)F)ncc1Cl [Final product 30]
4 | 20 | 10 | Cc1cc(Nc2ncc(Cl)c(Nc3cn(C)nc3S(=O)(=O)C(C)C)n2)c(OC(F)(F)F)cc1C1CCN(C)CC1 [Final product 31]
5 | 74 | 49 | Cc1cc(Nc2ncc(Cl)c(Nc3cn(C)nc3S(=O)(=O)C(C)C)n2)c(C(F)(F)F)cc1C1CCN(C)CC1 [Final product 32]
6 | 62 | 23 | Cc1cc(Nc2ncc(Cl)c(Nc3cn(C)nc3S(=O)(=O)C(C)C)n2)c(OC(CF)CF)cc1C1CCN(C)CC1 [Final product 34]
7 | 62 | 15 | Cc1cc(Nc2ncc(Cl)c(Nc3cn(C)nc3S(=O)(=O)CC(C)C)n2)c(OC(C)C)cc1C1CN(C)C1 [Final product 36]
8 | 11 | 4 | Cc1cc(Nc2ncc(Cl)c(Nc3cn(C)nc3S(=O)(=O)C(C)C)n2)c(OC(C)C)cc1C1CCN(C)C1 (centres unmarked) [Final product 37]
9 | 22 | 18 | CC(C)S(=O)(=O)c1nn(C2CC2)cc1Nc1nc(Nc2ccc(C3CCN(C)CC3)cc2OC(F)(F)F)ncc1Cl [Final product 38]
10 | 74 | 48 | Cc1cc(Nc2ncc(Cl)c(Nc3cn(C)nc3S(=O)(=O)C(C)C)n2)c(OCC2CC2)cc1C1CCN(C)CC1 [Final product 39]
11 | 4 | 3 | CC(C)S(=O)(=O)c1nn(C)cc1Nc1nc(Nc2ccc(C3CCN(C)C3)cc2OC2CC2)ncc1Cl (centres unmarked) [Final product 41]
12 | 3 | 3 | CC(C)S(=O)(=O)c1nn(C2CC2)cc1Nc1nc(Nc2ccc(C3CCN(C)CC3)cc2OC2CC2)ncc1Cl [Final product 42]
13 | 19 | 10 | CC(C)S(=O)(=O)c1nn(C)cc1Nc1nc(Nc2cc(F)c(C3CCN(C)C3)cc2OC2CC2)ncc1Cl (centres unmarked) [Final product 45]
14 | 41 | 5 | CC(C)S(=O)(=O)c1nn(C2CC2)cc1Nc1nc(Nc2cc(Cl)c(C3CCN(C)CC3)cc2OC2CC2)ncc1Cl [Final product 48]
15 | 100 | 13 | CC(C)S(=O)(=O)c1nn(C)cc1Nc1nc(Nc2cc(C#N)c(C3CCN(C)CC3)cc2OC2CC2)ncc1Cl [Final product 49]
16 | 11 | 7 | Cc1cc(Nc2ncc(Cl)c(Nc3cn(C)nc3S(=O)(=O)C(C)C)n2)c(OC2CC2)cc1C1=CCN(C)CC1 [Final product 50]
17 | 18 | 19 | Cc1cc(Nc2ncc(Cl)c(Nc3cn(C)nc3S(=O)(=O)C(C)C)n2)c(OC2CC2)cc1C1CCOCC1 [Final product 107]
18 | 16 | 7 | Cc1cc(Nc2ncc(Cl)c(Nc3cn(C)nc3S(=O)(=O)C(C)C)n2)c(OC2CC2)cc1OC1CCN(C)CC1 [Final product 111]
19 | 9 | 10 | CCN1CCC(c2cc(OC(C)C)c(Nc3ncc(Cl)c(Nc4cn(C)nc4S(=O)(=O)C(C)C)n3)cc2C)CC1 [Final product 118]

Row | IC50 (Karpas-299 cell line) [nM] | IC50 (L1196M mutant ALK kinase) [nM] | Compound
20 | 12 | 12 | Cc1cc(Nc2ncc(Cl)c(Nc3cn(C)nc3S(=O)(=O)C(C)C)n2)c(OC(C)C)cc1C1CCN(C(C)C)CC1 [Final product 126]
21 | 30 | 12 | Cc1cc(Nc2ncc(Cl)c(Nc3cn(C)nc3S(=O)(=O)CC(C)C)n2)c(OC2CC2)cc1C1CCN(C(C)C)CC1 [Final product 127]
22 | 3 | 7 | CCOc1cc(C2CCN(CCO)CC2)c(C)cc1Nc1ncc(Cl)c(Nc2cn(C)nc2S(=O)(=O)C(C)C)n1 [Final product 135]
23 | 12 | 11 | Cc1cc(Nc2ncc(Cl)c(Nc3cn(C)nc3S(=O)(=O)CC(C)C)n2)c(OC2CC2)cc1C1CCN(CCO)CC1 [Final product 137]
24 | 6 | 8 | Cc1cc(Nc2ncc(Cl)c(Nc3cn(C)nc3S(=O)(=O)C(C)C)n2)c(OC2CCC2)cc1C1CCN(CCO)CC1 [Final product 138]
25 | 7 | 9 | Cc1cc(Nc2ncc(Cl)c(Nc3cn(C)nc3S(=O)(=O)C(C)C)n2)c(OC(C)C)cc1C1CCN(C(C)(C)CO)CC1 [Final product 152]
26 | 13 | 11 | Cc1cc(Nc2ncc(Cl)c(Nc3cn(C)nc3S(=O)(=O)C(C)C)n2)c(OC2CC2)cc1C1CCN(C2CC2)CC1 [Final product 157]
27 | 11 | 9 | Cc1cc(Nc2ncc(Cl)c(Nc3cn(C)nc3S(=O)(=O)C(C)C)n2)c(OC2CC2)cc1C1CCN(C=O)CC1 [Final product 159, 4-(4-(5-chloro-4-(3-(isopropylsulfonyl)-1-methyl-1H-pyrazol-4-amino)pyrimidin-2-amino)-5-cyclopropoxy-2-methylphenyl)piperidin-1-formaldehyde]
28 | 24 | 21 | Cc1cc(Nc2ncc(Cl)c(Nc3cn(C)nc3S(=O)(=O)C(C)C)n2)c(OC2CC2)cc1C1CCN(C(=O)C2CC2)CC1 [Final product 162, 1-cyclopropylformyl-4-(4-(5-chloro-4-(3-(isopropylsulfonyl)-1-methyl-1H-pyrazol-4-amino)pyrimidin-2-amine)-5-cyclopropoxy-2-methylphenyl)piperidine]
29 | 15 | 56 | Cc1cc(Nc2ncc(Cl)c(Nc3cn(C)nc3S(=O)(=O)C(C)C)n2)c(OC2CC2)cc1C1CCN(C(=O)C(C)(C)C)CC1 [Final product 164, 1-pivaloyl-4-(4-(5-chloro-4-(3-(isopropylsulfonyl)-1-methyl-1H-pyrazol-4-amino)pyrimidin-2-amine)-5-cyclopropoxy-2-methylphenyl)piperidine]
30 | 3 | 3 | Cc1cc(Nc2ncc(Cl)c(Nc3cn(C)nc3S(=O)(=O)C(C)C)n2)c(OC2CC2)cc1C1CCN(C(=O)CN(C)C)CC1 [Final product 165, 1-(2-dimethylamino)acetyl-4-(4-(5-chloro-4-(3-(isopropylsulfonyl)-1-methyl-1H-pyrazol-4-amino)pyrimidin-2-amino)-5-cyclopropoxy-2-methylphenyl)piperidine]
31 | 68 | 25 | Cc1cc(Nc2ncc(Cl)c(Nc3cn(C)nc3S(=O)(=O)C(C)C)n2)c(OC(C)C)cc1C1CN(S(C)(=O)=O)C1 [Final product 168]
32 | 86 | 95 | Cc1cc(Nc2ncc(Cl)c(Nc3cn(C)nc3S(=O)(=O)C(C)C)n2)c(OC2CC2)cc1C1CN(S(C)(=O)=O)C1 [Final product 170]
33 | 69 | 156 | Cc1cc(Nc2ncc(Cl)c(Nc3cn(C)nc3S(=O)(=O)CC(C)C)n2)c(OC2CC2)cc1C1CN(S(C)(=O)=O)C1 [Final product 171]
34 | 17 | 9 | CC(C)S(=O)(=O)c1nn(C)cc1Nc1nc(Nc2ccc(C3CCN(S(C)(=O)=O)C3)cc2OC2CC2)ncc1Cl (centres unmarked) [Final product 172]
35 | 19 | 28 | CC(C)S(=O)(=O)c1nn(C2CC2)cc1Nc1nc(Nc2ccc(C3CCN(S(C)(=O)=O)CC3)cc2OC2CC2)ncc1Cl [Final product 173]
36 | 20 | 6 | CCNC(=O)N1CCC(c2cc(OC3CC3)c(Nc3ncc(Cl)c(Nc4cn(C)nc4S(=O)(=O)C(C)C)n3)cc2C)CC1 [Final product 174, 4-(4-(5-chloro-4-(3-(isopropylsulfonyl)-1-methyl-1H-pyrazol-4-amine)pyrimidin-2-amine)-5-cyclopropoxy-2-methyl-phenyl)-N-ethyl-piperidin-1-carboxamide]
37 | 18 | 17 | CCN(CC)[C@H]1CC[C@H](c2cc(OC3CC3)c(Nc3ncc(Cl)c(Nc4cn(C)nc4S(=O)(=O)CC(C)C)n3)cc2C)CC1 [Final product 178]
